According to patent US7138361B2, “Herbicidal heterocycles” (E. I. du Pont de Nemours and Company, priority 2000, dated 2006):

What was measured:
Assay type in all cases: in vivo
[1] = test system: smallflower flatsedge (Cyperus difformis); assay: Test C flooded paddy test; conditions: for Flatsedge plant response rating: Flooded Paddy, scale 0 to 100, 0 no effect, 100 complete control; for Plant response rating, Flatsedge / Plant response rating (scale 0 to 100), Flatsedge: flooded paddy test; for Plant response rating, Flatsedge: scale 0 to 100 (0 no effect, 100 complete control)
Method in brief: (§1)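 Visually assessed vs untreated controls 12–14 d post-treatment (greenhouse). Flooded paddy plants were at the 2-leaf stage; scale 0 = no effect, 100 = complete control.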

rice (Oryza saliva) [2] = assay: Test C flooded paddy test; conditions: for Rice plant response rating: Flooded Paddy, scale 0 to 100, 0 no effect, 100 complete control; for Plant response rating, Rice / Plant response rating (scale 0 to 100), Rice: flooded paddy test; for Plant response rating, Rice: scale 0 to 100 (0 no effect, 100 complete control)
Method in brief: as §1

[3] = test system: barnyardgrass (Echinochloa crus-galli); assay: Test C flooded paddy test; conditions: for Barnyardgrass plant response rating: Flooded Paddy, scale 0 to 100, 0 no effect, 100 complete control; for Plant response rating, Barnyardgrass / Plant response rating (scale 0 to 100), Barnyardgrass: flooded paddy test; for Plant response rating, Barnyardgrass: scale 0 to 100 (0 no effect, 100 complete control)
Method in brief: as §1

[4] = test system: duck salad (Heteranthera limosa); assay: Test C flooded paddy test; conditions: for Ducksalad plant response rating: Flooded Paddy, scale 0 to 100, 0 no effect, 100 complete control; for Plant response rating, Ducksalad / Plant response rating (scale 0 to 100), Ducksalad: flooded paddy test; for Plant response rating, Ducksalad: scale 0 to 100 (0 no effect, 100 complete control)
Method in brief: as §1

[5] = test system: lambsquarters (Chenopodium album); assay: Test B postemergence; conditions: 13 to 15 days
Method in brief: (§2)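 Pre: seeded pots sprayed, chemical in non-phytotoxic solvent/surfactant mix. Post: plants 2–18 cm, 1–4 leaf, same formulation. Greenhouse 13–15 d; visual % control vs untreated, 0–100 scale.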

[6] = test system: blackgrass (Alopecurus myosuroides); assay: Test B postemergence; conditions: 13 to 15 days
Method in brief: as §2

[7] = test system: smallflower flatsedge (Cyperus difformis); assay: Test B flooded paddy test; conditions: Rate 1000 g/ha, scale of 0 to 100 where 0 is no effect and 100 is complete control, visually evaluated after 13 to 15 days
Method in brief: (§3)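 2-leaf plants, flooded paddy; greenhouse 13–15 d post-treatment; visual rating vs controls, 0–100 scale (0 = no effect, 100 = complete control); dash = no result.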

rice (Oryza saliva) [8] = assay: Test B flooded paddy test; conditions: Rate 1000 g/ha, scale of 0 to 100 where 0 is no effect and 100 is complete control, visually evaluated after 13 to 15 days
Method in brief: as §3

[9] = test system: barnyardgrass (Echinochloa crus-galli); assay: Test B flooded paddy test; conditions: Rate 1000 g/ha, scale of 0 to 100 where 0 is no effect and 100 is complete control, visually evaluated after 13 to 15 days
Method in brief: as §3

[10] = test system: duck salad (Heteranthera limosa); assay: Test B flooded paddy test; conditions: Rate 1000 g/ha, scale of 0 to 100 where 0 is no effect and 100 is complete control, visually evaluated after 13 to 15 days
Method in brief: as §3

[11] = Rate 16 g/ha, visually evaluated after 12 to 14 days, 0 = no effect, 100 = complete control
[12] = under head Rate 16 g/ha, (own rate not given), after 12 to 14 days
[13] = Rate 125 g/ha, scale 0 (no effect) to 100 (complete control)
[14] = Rate 500 g/ha, scale 0 to 100, 0 is no effect, 100 is complete control

Compound | Flatsedge plant response rating ([1]; Rate 250 g/ha) | Flatsedge plant response rating ([1]; Rate 500 g/ha) | Plant response rating, Flatsedge ([1]; Rate 62 g/ha) | Plant response rating, Flatsedge ([1]; Rate 125 g/ha) | Rice plant response rating (rice (Oryza saliva) [2]; Rate 250 g/ha) | Rice plant response rating (rice (Oryza saliva) [2]; Rate 500 g/ha) | Plant response rating, Rice (rice (Oryza saliva) [2]; Rate 62 g/ha) | Plant response rating, Rice (rice (Oryza saliva) [2]; Rate 125 g/ha) | Barnyardgrass plant response rating ([3]; Rate 250 g/ha) | Plant response rating, Barnyardgrass ([3]; Rate 62 g/ha) | Plant response rating, Barnyardgrass ([3]; Rate 125 g/ha) | Ducksalad plant response rating ([4]; Rate 250 g/ha) | Ducksalad plant response rating ([4]; Rate 500 g/ha) | Plant response rating, Ducksalad ([4]; Rate 62 g/ha) | Plant response rating, Lambsquarters [5, 13] | Plant response rating, Lambsquarters [5, 14] | Plant response rating, Blackgrass [6, 13] | Plant response rating, Blackgrass [6, 14] | Plant response rating, Flatsedge [7] | Plant response rating, Rice (rice (Oryza saliva) [8]) | other results
COc1cc(N2CCC(n3ccc(C(C)(C)C)n3)C2=O)ccc1C (stereo not drawn) [Compound 42] | 100 | 100 | 100 | 100 | 70 | 80 | 20 | 40 | 100 | 100 | 100 | 100 | 100 | 100 | 70 | 100 | 0 | 50 | 100 | 100 | Plant response rating (scale 0 to 100), Flatsedge [1, 11]: 100; Plant response rating (scale 0 to 100), Flatsedge [1, 12]: 100; Plant response rating (scale 0 to 100), Rice (rice (Oryza saliva) [2]; [11]): 0; Plant response rating (scale 0 to 100), Rice (rice (Oryza saliva) [2]; [12]): 0; Barnyardgrass plant response rating ([3]; Rate 500 g/ha): 100; Plant response rating (scale 0 to 100), Barnyardgrass [3, 11]: 70; Plant response rating (scale 0 to 100), Barnyardgrass [3, 12]: 50; Plant response rating, Ducksalad ([4]; Rate 125 g/ha): 100; Plant response rating (scale 0 to 100), Ducksalad [4, 11]: 90; Plant response rating (scale 0 to 100), Ducksalad [4, 12]: 80; Plant response rating, Barnyardgrass [9]: 100; Plant response rating, Ducksalad [10]: 100
O=C1C(n2ccc(C3CCCCC3)n2)SCN1c1cccc(OC(F)(F)F)c1 (stereo not drawn) [Compound 50] | 90 | 100 | 80 | 90 | 0 | 50 | 0 | 0 | 70 | 0 | 40 | 80 | 90 | 0 | 70 | 80 | 0 | 0 | 100 | 60 | Barnyardgrass plant response rating ([3]; Rate 500 g/ha): 80; Plant response rating, Ducksalad ([4]; Rate 125 g/ha): 70; Plant response rating, Barnyardgrass [9]: 100; Plant response rating, Ducksalad [10]: 100
O=C1C(n2ccc(C3CCCCC3)n2)OCN1c1cccc(C(F)(F)F)c1 (stereo not drawn) [Compound 51] | 100 | 100 | 40 | 90 | 0 | 0 | 0 | 0 | 90 | 20 | 20 | 40 | 70 | 0 | 80 | 90 | 0 | 0 | 100 | 30 | Plant response rating, Ducksalad ([4]; Rate 125 g/ha): 0; Plant response rating, Barnyardgrass [9]: 100; Plant response rating, Ducksalad [10]: 100
O=C1C(n2ccc(C3CCCCC3)n2)SCN1c1cccc(C(F)(F)F)c1 (stereo not drawn) [Compound 52] | 100 | 100 | 90 | 90 | 0 | 60 | 0 | 0 | 70 | 30 | 60 | 40 | 100 | 20 | 0 | 0 | 0 | 0 | 100 | 50 | Barnyardgrass plant response rating ([3]; Rate 500 g/ha): 100; Plant response rating, Barnyardgrass [9]: 100; Plant response rating, Ducksalad [10]: 100
CC(C)(C)c1ccn(C2CCN(c3ccc(Cl)c(Br)c3)C2=O)n1 (stereo not drawn) [Compound 56] | 90 | 90 | 80 | 80 | 0 | 0 | 0 | 0 | 30 | 0 | 30 | 0 | 0 | 0 | 80 | 90 | 0 | 0 | 90 | 0 | Barnyardgrass plant response rating ([3]; Rate 500 g/ha): 30; Plant response rating, Ducksalad ([4]; Rate 125 g/ha): 0; Plant response rating, Barnyardgrass [9]: 80; Plant response rating, Ducksalad [10]: 20
